Laboratory results taken from patent US12465588B2, “Indole carboxamide derivative and pharmaceutical composition containing same” (KUKJE PHARMA CO., LTD., priority 2019, dated 2025).

Tested on: A549 human lung cancer cells
Experiment: Measurement of PGE2 in IL-1β-treated A549 human lung cancer cells
Type: cell-based
Conditions: PGE2 production, A549 cell, IL-1β 1 ng/mL, 48 hours
Description: Samples at various concentrations were added at 24 hours after A549 human lung cancer cells were seeded. After 1 hour, IL-1β of 1 ng/mL was added. The cells were cultured for 48 hours and then the culture supernatant was collected. PGE2 of the collected supernatant was measured according to the manufacturer's instructions using a PGE2 EIA kit.

| Structure (SMILES) | IC50 [nM] |
| --- | --- |
| CC(C)C(=O)NCc1ccc(Cl)c(C(=O)Nc2ccc3c(c2)cc(C(=O)Nc2cccc(F)c2)n3C)c1 [Compound 1, 5-(2-chloro-5-(isobutyramidomethyl)benzamido)-N-(3-fluorophenyl)-1-methyl-1H-indole-2-carboxamide] | 277 |
| CC(C)C(=O)NCc1ccc(Cl)c(C(=O)Nc2ccc3c(c2)cc(C(=O)Nc2ccc(F)cc2)n3C)c1 [Compound 2, 5-(2-chloro-5-(isobutyramidomethyl)benzamido)-N-(4-fluorophenyl)-1-methyl-1H-indole-2-carboxamide] | 237 |
| CC(C)C(=O)NCc1ccc(Cl)c(C(=O)Nc2ccc3c(c2)cc(C(=O)Nc2cccc(Cl)c2)n3C)c1 [Compound 3, 5-(2-chloro-5-(isobutyramidomethyl)benzamido)-N-(3-chlorophenyl)-1-methyl-1H-indole-2-carboxamide] | 209 |
| CC(C)C(=O)NCc1ccc(Cl)c(C(=O)Nc2ccc3c(c2)cc(C(=O)Nc2ccc(C(F)(F)F)cc2)n3C)c1 [Compound 8, 5-(2-chloro-5-(isobutyramidomethyl)benzamido)-1-methyl-N-(4-(trifluoromethyl)phenyl)-1H-indole-2-carboxamide] | 5.22 |
| CC(C)C(=O)NCc1ccc(Cl)c(C(=O)Nc2ccc3c(c2)cc(C(=O)Nc2ccc(Br)cc2)n3C)c1 [Compound 13, N-(4-bromophenyl)-5-(2-chloro-5-(isobutyramidomethyl)benzamido)-1-methyl-1H-indole-2-carboxamide] | 26.4 |
| CC(C)C(=O)NCc1ccc(Cl)c(C(=O)Nc2ccc3c(c2)cc(C(=O)Nc2cccc(-c4ccc(C(F)(F)F)cc4)c2)n3C)c1 [Compound 16, 5-(2-chloro-5-(isobutyramidomethyl)benzamido)-1-methyl-N-(4′-(trifluoromethyl)-[1,1′-biphenyl]-3-yl)-1H-indole-2-carboxamide] | 7.19 |
| CC(C)C(=O)NCc1ccc(Cl)c(C(=O)Nc2ccc3c(c2)cc(C(=O)Nc2cc(F)cc(C(F)(F)F)c2)n3C)c1 [Compound 17, 5-(2-chloro-5-(isobutyramidomethyl)benzamido)-N-(3-fluoro-5-(trifluoromethyl)phenyl)-1-methyl-1H-indole-2-carboxamide] | 88.1 |
| CC(C)C(=O)NCc1ccc(Cl)c(C(=O)Nc2ccc3c(c2)cc(C(=O)Nc2ccc(C(F)(F)F)nc2)n3C)c1 [Compound 18, 5-(2-chloro-5-(isobutyramidomethyl)benzamido)-1-methyl-N-(6-(trifluoromethyl)pyridin-3-yl)-1H-indole-2-carboxamide] | 60 |
| CC(C)C(=O)NCc1ccc(Cl)c(C(=O)Nc2ccc3c(c2)cc(C(=O)Nc2cc(-c4ccc(C(F)(F)F)cc4)n[nH]2)n3C)c1 [Compound 19, 5-(2-chloro-5-(isobutyramidomethyl)benzamido)-1-methyl-N-(3-(4-(trifluoromethyl)phenyl)-1H-pyrazole-5-yl)-1H-indole-2-carboxamide] | > 100 |
| Cc1c(-c2ccc(C(F)(F)F)cc2)n[nH]c1NC(=O)c1cc2cc(NC(=O)c3cc(CNC(=O)C(C)C)ccc3Cl)ccc2n1C [Compound 20, 5-(2-chloro-5-(isobutyramidomethyl)benzamido)-1-methyl-N-(4-methyl-3-(4-(trifluoromethyl)phenyl)-1H-pyrazol-5-yl)-1H-indole-2-carboxamide] | 6.87 |
| CC(C)C(=O)NCc1ccc(Cl)c(C(=O)Nc2ccc3c(c2)cc(C(=O)N2CCN(c4ncccn4)CC2)n3C)c1 [Compound 21, 2-chloro-5-(isobutyramidomethyl)-N-(1-methyl-2-(4-(pyrimidin-2-yl)piperazin-1-carbonyl)-1H-indole-5-yl)benzamide] | > 100 |
| Cc1cc(Cl)ccc1NC(=O)c1cc2cc(NC(=O)c3cc(CNC(=O)C(C)C)ccc3Cl)ccc2n1C [Compound 22, N-(4-chloro-2-methylphenyl)-5-(2-chloro-5-(isobutyramidomethyl)benzamido)-1-methyl-1H-indole-2-carboxamide] | 27.4 |
| Cc1cc(F)ccc1NC(=O)c1cc2cc(NC(=O)c3cc(CNC(=O)C(C)C)ccc3Cl)ccc2n1C [Compound 23, 5-(2-chloro-5-(isobutyramidomethyl)benzamido)-N-(4-fluoro-2-methylphenyl)-1-methyl-1H-indole-2-carboxamide] | 45 |
| CC(C)C(=O)NCc1ccc(Cl)c(C(=O)Nc2ccc3c(c2)cc(C(=O)N[C@@H](C)c2ccc4ccccc4c2)n3C)c1 [Compound 31, (S)-5-(2-chloro-5-(isobutyramidomethyl)benzamido)-1-methyl-N-(1-(naphthalen-2-yl)ethyl)-1H-indole-2-carboxamide] | 9.22 |
| CC(C)C(=O)NCc1ccc(Cl)c(C(=O)Nc2ccc3c(c2)cc(C(=O)NCc2ccc(F)cc2)n3C)c1 [Compound 32, 5-(2-chloro-5-(isobutyramidomethyl)benzamido)-N-(4-fluorobenzyl)-1-methyl-1H-indole-2-carboxamide] | 9.62 |
| CC(C)C(=O)NCc1ccc(Cl)c(C(=O)Nc2ccc3c(c2)cc(C(=O)NCc2ccc(C(C)(C)C)cc2)n3C)c1 [Compound 33, N-(4-(tert-butyl)benzyl)-5-(2-chloro-5-(isobutyramidomethyl)benzamido)-1-methyl-1H-indole-2-carboxamide] | 9.59 |
| CC(C)C(=O)NCc1ccc(Cl)c(C(=O)Nc2ccc3c(c2)cc(C(=O)NCc2ccc(C(F)(F)F)cc2)n3C)c1 [Compound 34, 5-(2-chloro-5-(isobutyramidomethyl)benzamido)-1-methyl-N-(4-(trifluoromethyl)benzyl)-1H-indole-2-carboxamide] | 7.9 |
| CC(C)C(=O)NCc1ccc(Cl)c(C(=O)Nc2ccc3c(c2)cc(C(=O)NCc2ccccc2C(F)(F)F)n3C)c1 [Compound 35, 5-(2-chloro-5-(isobutyramidomethyl)benzamido)-1-methyl-N-(2-(trifluoromethyl)benzyl)-1H-indole-2-carboxamide] | 10.4 |
| CC(C)C(=O)NCc1ccc(Cl)c(C(=O)Nc2ccc3c(c2)cc(C(=O)NC(C)c2ccc(C(F)(F)F)cc2)n3C)c1 (stereo not shown) [Compound 47, 5-(2-chloro-5-(isobutyramidomethyl)benzamido)-1-methyl-N-(1-(4-(trifluoromethyl)phenyl)ethyl)-1H-indole-2-carboxamide] | 5.82 |
| CC(C)C(=O)NCc1ccc(Cl)c(C(=O)Nc2ccc3c(c2)cc(C(=O)NCc2ccc(Cl)cc2)n3C)c1 [Compound 49, 5-(2-chloro-5-(isobutyramidomethyl)benzamido)-N-(4-chlorobenzyl)-1-methyl-1H-indole-2-carboxamide] | 9.75 |
| CC(C)C(=O)NCc1ccc(Cl)c(C(=O)Nc2ccc3c(c2)cc(C(=O)NCc2ccc(F)c(Cl)c2)n3C)c1 [Compound 56, N-(3-chloro-4-fluorobenzyl)-5-(2-chloro-5-(isobutyramidomethyl)benzamido)-1-methyl-1H-indole-2-carboxamide] | 59.2 |
| CC(C)C(=O)NCc1ccc(Cl)c(C(=O)Nc2ccc3c(c2)cc(C(=O)N[C@H](C)c2ccc(C(F)(F)F)cc2)n3C)c1 [Compound 58, (R)-5-(2-chloro-5-(isobutyramidomethyl)benzamido)-1-methyl-N-(1-(4-(trifluoromethyl)phenyl)ethyl)-1H-indole-2-carboxamide] | 5.54 |
